ChEMBL document CHEMBL4819104, “Discovery of 2-amino-3-amido-5-aryl-pyridines as highly potent, orally bioavailable, and efficacious PERK kinase inhibitors” (Bioorg Med Chem Lett, 2021)
Values after ≈ are worked out from the molar mass of the structure shown.

How the values were obtained:
[1] = target: T1, Eukaryotic translation initiation factor 2-alpha kinase 3 (Homo sapiens, UniProt Q9NZJ5); test: Inhibition of human His-tagged PERK expressed in Escherichia coli assessed as eIF2alpha phosphorylation by TR-FRET assay
T1 sequence (Q9NZJ5 whole entry): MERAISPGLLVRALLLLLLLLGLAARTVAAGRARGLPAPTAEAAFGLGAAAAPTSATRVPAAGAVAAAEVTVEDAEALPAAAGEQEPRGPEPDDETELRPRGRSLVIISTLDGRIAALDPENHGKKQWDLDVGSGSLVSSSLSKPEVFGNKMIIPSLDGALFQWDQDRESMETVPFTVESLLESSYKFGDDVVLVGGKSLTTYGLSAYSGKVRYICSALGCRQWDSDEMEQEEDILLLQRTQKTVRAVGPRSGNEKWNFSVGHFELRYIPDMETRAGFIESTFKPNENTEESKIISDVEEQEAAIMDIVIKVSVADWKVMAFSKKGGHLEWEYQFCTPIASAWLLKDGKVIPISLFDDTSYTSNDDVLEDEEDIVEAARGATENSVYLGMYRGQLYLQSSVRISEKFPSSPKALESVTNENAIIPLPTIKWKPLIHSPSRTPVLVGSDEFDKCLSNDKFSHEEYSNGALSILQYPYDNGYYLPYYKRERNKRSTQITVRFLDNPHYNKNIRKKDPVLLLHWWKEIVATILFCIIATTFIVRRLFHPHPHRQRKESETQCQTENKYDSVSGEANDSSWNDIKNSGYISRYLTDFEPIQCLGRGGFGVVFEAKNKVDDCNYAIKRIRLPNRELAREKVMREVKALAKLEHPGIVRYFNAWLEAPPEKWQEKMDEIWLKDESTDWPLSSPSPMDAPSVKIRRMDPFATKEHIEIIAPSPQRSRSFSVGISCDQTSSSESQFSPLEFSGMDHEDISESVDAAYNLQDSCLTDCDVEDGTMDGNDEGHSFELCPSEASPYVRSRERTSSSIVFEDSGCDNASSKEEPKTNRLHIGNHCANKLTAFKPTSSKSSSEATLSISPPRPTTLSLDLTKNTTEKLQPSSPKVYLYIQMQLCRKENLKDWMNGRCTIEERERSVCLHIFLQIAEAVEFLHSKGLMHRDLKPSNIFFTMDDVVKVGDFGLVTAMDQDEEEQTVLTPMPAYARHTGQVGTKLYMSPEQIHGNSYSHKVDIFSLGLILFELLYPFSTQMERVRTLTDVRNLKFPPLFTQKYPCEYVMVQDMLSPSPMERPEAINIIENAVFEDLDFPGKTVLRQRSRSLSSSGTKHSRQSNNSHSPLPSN

[2] = Aqueous solubility of the compound; assay type: physicochemical; settings: buffer
[3] = Apparent permeability of the compound across apical to basolateral side in human Caco-2 cells; assay type: ADME, cell-based; settings: read-out: permeability
[4] = Efflux ratio of apparent permeability in human Caco-2 cells; assay type: ADME, cell-based
[5] = Plasma protein binding in human; assay type: ADME, cell-free; settings: read-out: PPB (converted)
[6] = Plasma protein binding in rat; assay type: ADME, cell-free; settings: read-out: PPB (converted)
[7] = Plasma protein binding in mouse; assay type: ADME, cell-free; settings: read-out: PPB (converted)
[8] = Half life in human hepatocytes; assay type: ADME, cell-based, Hepatocyte
[9] = Half life in rat hepatocytes; assay type: ADME, cell-based, Hepatocyte
[10] = Half life in mouse hepatocytes; assay type: ADME, cell-based, Hepatocyte
[11] = Half life in dog hepatocytes; assay type: ADME, cell-based, Canis lupus familiaris, Hepatocyte
[12] = tested on: Tyrosine-protein kinase ABL1 (Homo sapiens), P00519 [F317L]; test: Inhibition of human non-phosphorylated ABL1 F317L mutant (S229 to K512 residues) expressed in mammalian expression system assessed as residual activity at 10 uM by Kinomescan method relative to control
[13] = target: Aurora kinase B (Homo sapiens) (UniProt Q96GD4); test: Inhibition of wild-type human partial length AURKB (D25 to A303 residues) expressed in mammalian expression system assessed as residual activity at 10 uM by Kinomescan method relative to control
[14] = target: Macrophage colony-stimulating factor 1 receptor (Homo sapiens) (UniProt P07333); test: Inhibition of wild-type human partial length CSF1R (I564 to S939 residues) expressed in bacterial expression system assessed as residual activity at 10 uM by Kinomescan method relative to control
[15] = target: Epithelial discoidin domain-containing receptor 1 (Homo sapiens) (UniProt Q08345); test: Inhibition of wild-type human partial length DDR1 (R565 to V876 residues) expressed in bacterial expression system assessed as residual activity at 10 uM by Kinomescan method relative to control
[16] = target: Mast/stem cell growth factor receptor Kit (Homo sapiens) (UniProt P10721); test: Inhibition of wild-type human partial length KIT (I571 to D952 residues) expressed in bacterial expression system assessed as residual activity at 10 uM by Kinomescan method relative to control
[17] = target: T2, Mitogen-activated protein kinase 12 (Homo sapiens) (UniProt P53778); test: Inhibition of wild-type human full length p38-gamma (M1 to L367 residues) expressed in mammalian expression system assessed as residual activity at 10 uM by Kinomescan method relative to control
T2 sequence (whole entry): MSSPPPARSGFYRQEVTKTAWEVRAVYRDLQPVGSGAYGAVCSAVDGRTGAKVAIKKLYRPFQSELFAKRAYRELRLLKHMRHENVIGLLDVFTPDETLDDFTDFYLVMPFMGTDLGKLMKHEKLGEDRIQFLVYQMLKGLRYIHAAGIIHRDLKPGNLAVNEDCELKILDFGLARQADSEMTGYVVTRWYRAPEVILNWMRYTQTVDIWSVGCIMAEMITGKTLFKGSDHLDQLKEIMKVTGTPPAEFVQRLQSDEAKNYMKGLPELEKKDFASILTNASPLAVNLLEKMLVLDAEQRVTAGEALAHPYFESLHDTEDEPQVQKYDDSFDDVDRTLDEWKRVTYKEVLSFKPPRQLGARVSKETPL

[18] = target: Platelet-derived growth factor receptor beta (Homo sapiens) (UniProt P09619); test: Inhibition of wild-type human partial length PDGFRbeta (V582 to Y1009 residues) expressed in bacterial expression system assessed as residual activity at 10 uM by Kinomescan method relative to control
[19] = target: Proto-oncogene tyrosine-protein kinase Src (Homo sapiens) (UniProt P12931); test: Inhibition of wild-type human partial length SRC (L240 to L536 residues) expressed in bacterial expression system assessed as residual activity at 10 uM by Kinomescan method relative to control
[20] = target: Angiopoietin-1 receptor (Homo sapiens) (UniProt Q02763); test: Inhibition of wild-type human partial length TIE2 (N804 to T1112 residues) expressed in bacterial expression system assessed as residual activity at 10 uM by Kinomescan method relative to control
[21] = Cmax in mouse at 10 mg/kg, po; assay type: ADME, organism-based; design: route oral, dose 10 mg/kg; settings: in vivo
[22] = AUC (0 to last) in mouse at 10 mg/kg, po; assay type: ADME, organism-based; design: time 0 - last, route oral, dose 10 mg/kg; settings: in vivo
[23] = Half life in mouse at 10 mg/kg, po; assay type: ADME, organism-based; settings: in vivo
[24] = Oral bioavailability in mouse at 10 mg/kg; assay type: ADME, organism-based; settings: in vivo

Macrophage colony-stimulating factor 1 receptor (Homo sapiens), sequence (P07333 whole entry, the tested form may be a part): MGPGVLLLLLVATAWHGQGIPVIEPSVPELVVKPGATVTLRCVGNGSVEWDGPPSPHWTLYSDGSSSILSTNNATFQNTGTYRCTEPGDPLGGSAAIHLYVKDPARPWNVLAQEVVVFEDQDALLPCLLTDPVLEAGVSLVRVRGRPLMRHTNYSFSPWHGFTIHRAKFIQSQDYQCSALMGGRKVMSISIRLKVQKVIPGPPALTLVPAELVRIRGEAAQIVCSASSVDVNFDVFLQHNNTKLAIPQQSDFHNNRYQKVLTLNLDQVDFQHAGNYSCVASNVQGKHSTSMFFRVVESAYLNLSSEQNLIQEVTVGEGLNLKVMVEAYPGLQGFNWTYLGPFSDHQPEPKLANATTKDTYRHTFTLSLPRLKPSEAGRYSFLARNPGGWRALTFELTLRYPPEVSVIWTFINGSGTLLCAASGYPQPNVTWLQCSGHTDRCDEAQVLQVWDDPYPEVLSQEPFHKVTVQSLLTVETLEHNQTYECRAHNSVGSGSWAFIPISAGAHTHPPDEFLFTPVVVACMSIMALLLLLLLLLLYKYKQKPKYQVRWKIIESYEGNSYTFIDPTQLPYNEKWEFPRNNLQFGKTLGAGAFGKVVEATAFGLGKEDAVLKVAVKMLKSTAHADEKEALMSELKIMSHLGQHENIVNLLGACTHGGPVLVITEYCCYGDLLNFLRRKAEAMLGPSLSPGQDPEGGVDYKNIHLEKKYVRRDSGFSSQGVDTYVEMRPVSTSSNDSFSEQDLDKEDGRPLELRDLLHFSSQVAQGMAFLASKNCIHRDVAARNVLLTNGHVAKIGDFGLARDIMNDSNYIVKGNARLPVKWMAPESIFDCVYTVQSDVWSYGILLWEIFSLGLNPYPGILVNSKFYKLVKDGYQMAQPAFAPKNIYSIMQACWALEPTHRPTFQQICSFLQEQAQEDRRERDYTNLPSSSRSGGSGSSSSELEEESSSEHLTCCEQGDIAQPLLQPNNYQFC
Epithelial discoidin domain-containing receptor 1 (Homo sapiens), sequence (Q08345 whole entry, the tested form may be a part): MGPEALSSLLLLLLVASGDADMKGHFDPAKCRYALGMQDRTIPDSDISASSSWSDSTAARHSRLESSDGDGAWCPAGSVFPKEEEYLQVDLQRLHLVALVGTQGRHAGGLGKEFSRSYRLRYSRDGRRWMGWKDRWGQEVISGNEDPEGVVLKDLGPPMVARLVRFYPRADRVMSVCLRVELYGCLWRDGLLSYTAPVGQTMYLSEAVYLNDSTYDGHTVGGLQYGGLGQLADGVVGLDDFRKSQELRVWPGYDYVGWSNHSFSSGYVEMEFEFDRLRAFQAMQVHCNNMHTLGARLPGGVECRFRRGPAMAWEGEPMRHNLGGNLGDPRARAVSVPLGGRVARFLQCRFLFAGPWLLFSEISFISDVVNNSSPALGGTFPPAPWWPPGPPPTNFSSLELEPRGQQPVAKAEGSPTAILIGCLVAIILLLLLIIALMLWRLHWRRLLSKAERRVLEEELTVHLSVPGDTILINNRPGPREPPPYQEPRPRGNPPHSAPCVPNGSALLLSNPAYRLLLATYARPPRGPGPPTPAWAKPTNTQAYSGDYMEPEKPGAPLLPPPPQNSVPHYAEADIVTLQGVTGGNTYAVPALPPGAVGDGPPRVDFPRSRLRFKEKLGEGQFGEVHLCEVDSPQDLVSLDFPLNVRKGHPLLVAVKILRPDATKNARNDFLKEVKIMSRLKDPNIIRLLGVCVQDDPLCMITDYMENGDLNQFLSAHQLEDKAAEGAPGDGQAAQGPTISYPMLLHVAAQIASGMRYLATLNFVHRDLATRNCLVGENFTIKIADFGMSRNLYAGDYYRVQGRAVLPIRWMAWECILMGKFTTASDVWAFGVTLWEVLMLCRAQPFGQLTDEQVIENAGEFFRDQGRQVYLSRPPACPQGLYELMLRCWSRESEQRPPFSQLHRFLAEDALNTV
Platelet-derived growth factor receptor beta (Homo sapiens), sequence (P09619 whole entry, the tested form may be a part): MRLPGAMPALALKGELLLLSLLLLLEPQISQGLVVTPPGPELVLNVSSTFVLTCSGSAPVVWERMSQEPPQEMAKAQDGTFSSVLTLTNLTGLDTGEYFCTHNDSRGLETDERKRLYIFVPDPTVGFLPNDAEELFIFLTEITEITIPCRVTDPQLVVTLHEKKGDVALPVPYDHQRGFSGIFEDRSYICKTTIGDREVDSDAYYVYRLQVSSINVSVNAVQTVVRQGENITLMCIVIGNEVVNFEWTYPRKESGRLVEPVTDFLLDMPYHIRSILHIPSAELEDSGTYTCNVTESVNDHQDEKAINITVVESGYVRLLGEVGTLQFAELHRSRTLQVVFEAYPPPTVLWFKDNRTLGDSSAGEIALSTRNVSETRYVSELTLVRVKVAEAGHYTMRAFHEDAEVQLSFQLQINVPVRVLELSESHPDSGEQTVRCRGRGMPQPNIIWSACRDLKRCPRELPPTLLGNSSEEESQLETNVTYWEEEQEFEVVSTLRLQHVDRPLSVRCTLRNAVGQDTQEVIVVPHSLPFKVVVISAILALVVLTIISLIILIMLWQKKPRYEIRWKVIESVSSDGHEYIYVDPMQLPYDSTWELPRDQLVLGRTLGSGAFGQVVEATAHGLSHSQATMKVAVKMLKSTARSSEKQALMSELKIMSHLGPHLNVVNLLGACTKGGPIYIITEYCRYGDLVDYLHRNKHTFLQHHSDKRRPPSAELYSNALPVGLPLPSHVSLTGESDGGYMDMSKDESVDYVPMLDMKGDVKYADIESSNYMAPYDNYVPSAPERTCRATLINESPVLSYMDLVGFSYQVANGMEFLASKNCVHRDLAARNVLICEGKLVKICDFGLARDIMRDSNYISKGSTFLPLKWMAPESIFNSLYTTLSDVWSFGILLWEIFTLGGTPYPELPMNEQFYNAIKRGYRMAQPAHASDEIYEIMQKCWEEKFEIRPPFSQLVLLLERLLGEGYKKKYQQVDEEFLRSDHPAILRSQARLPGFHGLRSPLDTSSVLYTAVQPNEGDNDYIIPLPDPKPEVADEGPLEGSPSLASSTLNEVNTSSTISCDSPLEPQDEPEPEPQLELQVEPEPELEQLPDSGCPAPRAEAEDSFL
Angiopoietin-1 receptor (Homo sapiens), sequence (Q02763 whole entry, the tested form may be a part): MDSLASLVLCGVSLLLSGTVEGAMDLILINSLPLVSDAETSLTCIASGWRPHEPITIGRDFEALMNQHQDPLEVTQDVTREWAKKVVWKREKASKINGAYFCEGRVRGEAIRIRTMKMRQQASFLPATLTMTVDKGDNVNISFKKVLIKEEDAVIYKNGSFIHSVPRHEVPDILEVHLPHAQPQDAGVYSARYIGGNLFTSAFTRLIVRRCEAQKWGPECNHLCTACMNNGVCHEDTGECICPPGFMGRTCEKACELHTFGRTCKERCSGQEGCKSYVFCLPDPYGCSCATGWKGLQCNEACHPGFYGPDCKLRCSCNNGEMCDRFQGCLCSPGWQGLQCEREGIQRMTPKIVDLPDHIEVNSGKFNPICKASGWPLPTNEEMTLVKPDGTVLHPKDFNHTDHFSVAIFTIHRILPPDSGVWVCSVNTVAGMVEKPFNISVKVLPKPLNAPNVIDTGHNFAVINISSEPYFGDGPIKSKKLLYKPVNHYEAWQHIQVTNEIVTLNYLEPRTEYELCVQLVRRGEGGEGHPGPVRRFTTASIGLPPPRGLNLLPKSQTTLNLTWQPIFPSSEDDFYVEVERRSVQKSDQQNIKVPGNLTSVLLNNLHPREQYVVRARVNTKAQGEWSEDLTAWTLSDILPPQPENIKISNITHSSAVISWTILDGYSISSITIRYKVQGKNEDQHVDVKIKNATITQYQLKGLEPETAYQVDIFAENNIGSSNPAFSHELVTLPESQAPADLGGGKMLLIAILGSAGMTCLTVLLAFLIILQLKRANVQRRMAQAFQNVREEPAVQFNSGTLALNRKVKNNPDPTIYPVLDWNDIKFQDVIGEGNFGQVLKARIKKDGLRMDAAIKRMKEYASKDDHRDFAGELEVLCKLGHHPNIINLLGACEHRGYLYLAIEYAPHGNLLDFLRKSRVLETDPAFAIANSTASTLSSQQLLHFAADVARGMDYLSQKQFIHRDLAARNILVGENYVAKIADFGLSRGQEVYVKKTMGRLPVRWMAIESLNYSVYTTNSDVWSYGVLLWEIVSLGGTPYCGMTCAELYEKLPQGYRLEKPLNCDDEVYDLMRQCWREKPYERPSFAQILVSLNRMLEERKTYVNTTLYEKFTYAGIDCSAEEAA
Proto-oncogene tyrosine-protein kinase Src (Homo sapiens), sequence (P12931 2-536 limits assumed): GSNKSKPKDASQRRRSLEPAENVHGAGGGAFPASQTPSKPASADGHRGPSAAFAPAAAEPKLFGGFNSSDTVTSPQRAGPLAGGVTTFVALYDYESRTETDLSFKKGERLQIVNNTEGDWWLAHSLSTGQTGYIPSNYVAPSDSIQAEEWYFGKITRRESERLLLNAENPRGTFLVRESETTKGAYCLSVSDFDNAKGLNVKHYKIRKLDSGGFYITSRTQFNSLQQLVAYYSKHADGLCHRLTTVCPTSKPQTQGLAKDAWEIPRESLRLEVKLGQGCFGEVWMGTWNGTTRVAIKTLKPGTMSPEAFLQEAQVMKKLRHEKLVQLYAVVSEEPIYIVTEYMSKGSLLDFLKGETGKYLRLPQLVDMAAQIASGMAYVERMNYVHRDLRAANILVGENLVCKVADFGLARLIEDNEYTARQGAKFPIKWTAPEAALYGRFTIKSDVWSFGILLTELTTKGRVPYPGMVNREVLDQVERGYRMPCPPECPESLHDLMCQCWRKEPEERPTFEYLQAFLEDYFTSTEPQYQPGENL
Aurora kinase B (Homo sapiens), sequence (Q96GD4 whole entry, the tested form may be a part): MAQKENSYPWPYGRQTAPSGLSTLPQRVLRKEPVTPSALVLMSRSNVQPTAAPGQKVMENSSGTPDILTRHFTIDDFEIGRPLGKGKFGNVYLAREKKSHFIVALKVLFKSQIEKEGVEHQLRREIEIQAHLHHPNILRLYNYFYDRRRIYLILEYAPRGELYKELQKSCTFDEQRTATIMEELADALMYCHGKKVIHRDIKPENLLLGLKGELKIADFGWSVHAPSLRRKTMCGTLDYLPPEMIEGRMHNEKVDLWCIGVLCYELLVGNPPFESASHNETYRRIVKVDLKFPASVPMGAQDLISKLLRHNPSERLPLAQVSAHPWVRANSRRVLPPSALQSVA

SMILES: CCc1cc(NC(=O)[C@H](O)c2cc(F)cc(F)c2)ccc1-c1cnc(N)c(C(=O)NC(C)C)c1
- IC50 [1]: 2 nM
- solubility [2]: 10 µM (≈ 4.69 µg/mL)
- Papp A→B [3]: 22 ×10⁻⁶ cm/s
- efflux ratio [4]: 2.3
- fraction unbound [5]: 0.003
- fraction unbound [6]: 0.007
- fraction unbound [7]: 0.006
- half-life [8]: 310 min
- half-life [9]: 14 min
- half-life [10]: 63 min
- half-life [11]: 493 min
- Activity [12]: 100%
- Activity [13]: 75%
- Activity [14]: 74%
- Activity [15]: 100%
- Activity [16]: 67%
- Activity [17]: 87%
- Activity [18]: 60%
- Activity [19]: 97%
- Activity [20]: 85%
- Cmax [21]: 3350 ng/mL
- AUC(0-t) [22]: 5150 ng·h/mL
- half-life [23]: 120 min
- bioavailability [24]: 70%
